Measurements reported in ChEMBL document CHEMBL4725338, “Discovery of novel histone lysine methyltransferase G9a/GLP (EHMT2/1) inhibitors: Design, synthesis, and structure-activity relationships of 2,4-diamino-6-methylpyrimidines” (Bioorg Med Chem Lett, 2020).
Values after ≈ are worked out from the molar mass of the structure shown. Active and inactive are the calls of the source. The rule behind the calls is not given here.

Legend:
[1] = target: T1, Histone-lysine N-methyltransferase EHMT2 (Homo sapiens, UniProt Q96KQ7); assay: Inhibition G9a (unknown origin)
T1 sequence (Q96KQ7 whole entry): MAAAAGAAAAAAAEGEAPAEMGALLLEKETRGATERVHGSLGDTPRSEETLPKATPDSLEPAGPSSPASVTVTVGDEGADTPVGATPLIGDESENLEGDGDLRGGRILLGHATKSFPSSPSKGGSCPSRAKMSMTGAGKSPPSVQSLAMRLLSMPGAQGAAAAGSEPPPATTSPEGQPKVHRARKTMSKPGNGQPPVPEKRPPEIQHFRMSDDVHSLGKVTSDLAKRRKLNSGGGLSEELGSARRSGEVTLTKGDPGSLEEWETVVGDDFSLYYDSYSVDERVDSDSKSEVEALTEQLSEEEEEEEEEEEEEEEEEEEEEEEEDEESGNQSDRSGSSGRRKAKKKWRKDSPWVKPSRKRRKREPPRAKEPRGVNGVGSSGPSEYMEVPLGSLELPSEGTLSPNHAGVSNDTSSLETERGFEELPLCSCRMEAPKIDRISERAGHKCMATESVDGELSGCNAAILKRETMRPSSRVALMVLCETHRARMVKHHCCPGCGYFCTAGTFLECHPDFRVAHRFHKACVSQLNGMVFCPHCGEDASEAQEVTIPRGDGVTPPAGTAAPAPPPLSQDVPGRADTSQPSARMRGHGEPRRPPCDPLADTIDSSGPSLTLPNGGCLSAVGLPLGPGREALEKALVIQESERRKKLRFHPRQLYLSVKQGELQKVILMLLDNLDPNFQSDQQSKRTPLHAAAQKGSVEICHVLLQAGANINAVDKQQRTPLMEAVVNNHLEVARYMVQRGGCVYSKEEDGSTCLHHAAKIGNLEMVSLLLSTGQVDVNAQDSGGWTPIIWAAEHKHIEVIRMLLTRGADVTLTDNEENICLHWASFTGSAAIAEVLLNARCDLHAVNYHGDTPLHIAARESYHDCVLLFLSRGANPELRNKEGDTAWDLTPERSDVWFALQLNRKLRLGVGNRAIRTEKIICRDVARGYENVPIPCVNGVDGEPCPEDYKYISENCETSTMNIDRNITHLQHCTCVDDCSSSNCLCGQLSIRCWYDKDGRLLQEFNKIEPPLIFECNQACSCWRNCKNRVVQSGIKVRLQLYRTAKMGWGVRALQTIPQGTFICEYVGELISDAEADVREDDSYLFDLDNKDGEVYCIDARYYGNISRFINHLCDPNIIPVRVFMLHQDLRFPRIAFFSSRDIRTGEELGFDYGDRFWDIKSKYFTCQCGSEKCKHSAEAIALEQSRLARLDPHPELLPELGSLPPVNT

[2] = target: T2, Histone-lysine N-methyltransferase EHMT1 (Homo sapiens, UniProt Q9H9B1); assay: Inhibition of GLP (unknown origin)
T2 sequence (Q9H9B1 whole entry): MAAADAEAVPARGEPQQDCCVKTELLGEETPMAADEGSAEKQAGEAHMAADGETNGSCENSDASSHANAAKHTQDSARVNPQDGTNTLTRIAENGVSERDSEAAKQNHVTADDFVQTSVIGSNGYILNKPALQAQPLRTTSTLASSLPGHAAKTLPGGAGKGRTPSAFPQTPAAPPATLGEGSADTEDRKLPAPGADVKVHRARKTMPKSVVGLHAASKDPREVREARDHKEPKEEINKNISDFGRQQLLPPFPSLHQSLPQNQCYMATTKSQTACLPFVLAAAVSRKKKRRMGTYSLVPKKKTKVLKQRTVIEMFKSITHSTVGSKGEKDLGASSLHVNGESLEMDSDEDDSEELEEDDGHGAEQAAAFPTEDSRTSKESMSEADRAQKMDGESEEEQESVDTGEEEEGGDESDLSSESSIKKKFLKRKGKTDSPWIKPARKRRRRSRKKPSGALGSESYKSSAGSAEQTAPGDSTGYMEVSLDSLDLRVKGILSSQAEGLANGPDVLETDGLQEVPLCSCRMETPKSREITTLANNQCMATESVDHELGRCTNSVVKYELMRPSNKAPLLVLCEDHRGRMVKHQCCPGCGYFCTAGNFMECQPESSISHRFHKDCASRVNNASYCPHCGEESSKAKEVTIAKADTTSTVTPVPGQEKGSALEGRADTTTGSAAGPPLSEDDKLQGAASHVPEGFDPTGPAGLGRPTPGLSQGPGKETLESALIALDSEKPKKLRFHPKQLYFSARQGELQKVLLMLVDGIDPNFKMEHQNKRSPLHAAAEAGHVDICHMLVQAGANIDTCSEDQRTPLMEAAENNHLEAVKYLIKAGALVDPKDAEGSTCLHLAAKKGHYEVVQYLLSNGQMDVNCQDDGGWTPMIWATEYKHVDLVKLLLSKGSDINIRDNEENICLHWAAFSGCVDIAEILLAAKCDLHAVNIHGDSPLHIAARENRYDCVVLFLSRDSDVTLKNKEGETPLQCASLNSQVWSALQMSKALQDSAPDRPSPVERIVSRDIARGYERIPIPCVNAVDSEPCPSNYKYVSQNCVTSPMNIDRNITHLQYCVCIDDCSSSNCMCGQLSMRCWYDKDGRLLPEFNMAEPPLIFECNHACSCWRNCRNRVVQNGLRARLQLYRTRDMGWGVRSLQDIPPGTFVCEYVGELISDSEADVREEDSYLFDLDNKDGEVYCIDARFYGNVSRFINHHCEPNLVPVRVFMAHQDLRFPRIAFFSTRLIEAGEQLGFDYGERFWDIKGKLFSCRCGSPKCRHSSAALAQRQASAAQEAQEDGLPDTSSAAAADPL

[3] = tested on: CD34-positive (myeloid/lymphoid) cell; assay: Induction of fetal globin in human CD34+ cells assessed as switching of mRAN expression from adult beta-globin to fetal type gamma globin at 0.3 to 1 uM by qRT-PCR analysis; format: functional, cell-based
[4] = Lipophilicity, log D of compound; format: physicochemical; conditions: octanol/water
[5] = Apparent permeability in MDCK cells; format: ADME, cell-based, Canis lupus familiaris; conditions: dog
[6] = Aqueous solubility of the compound in pH 1.2 JP1 fluid; format: physicochemical
[7] = Aqueous solubility of the compound in pH 6.8 JP2 fluid; format: physicochemical
[8] = Metabolic stability in mouse liver microsomes assessed as compound remaining at 0.5 mg/mL incubated for 0.5 hrs; format: ADME, Microsome; conditions: read-out: Stabilty
[9] = Metabolic stability in monkey liver microsomes assessed as compound remaining at 0.5 mg/mL incubated for 0.5 hrs; format: ADME, Macaca mulatta, Microsome; conditions: rhesus monkey, read-out: Stabilty
[10] = Metabolic stability in human liver microsomes assessed as compound remaining at 0.5 mg/mL incubated for 0.5 hrs; format: ADME, Microsome; conditions: read-out: Stabilty
[11] = Cmax in mouse at 10 mg/kg, po; format: ADME, organism-based; parameters: route oral, dose 10 mg/kg; conditions: in vivo
hERG (KCNH2) = hERG (KCNH2) (Homo sapiens, UniProt Q12809); assay: Inhibition of human ERG at 10 uM relative to control
hERG (KCNH2), sequence (Q12809 whole entry): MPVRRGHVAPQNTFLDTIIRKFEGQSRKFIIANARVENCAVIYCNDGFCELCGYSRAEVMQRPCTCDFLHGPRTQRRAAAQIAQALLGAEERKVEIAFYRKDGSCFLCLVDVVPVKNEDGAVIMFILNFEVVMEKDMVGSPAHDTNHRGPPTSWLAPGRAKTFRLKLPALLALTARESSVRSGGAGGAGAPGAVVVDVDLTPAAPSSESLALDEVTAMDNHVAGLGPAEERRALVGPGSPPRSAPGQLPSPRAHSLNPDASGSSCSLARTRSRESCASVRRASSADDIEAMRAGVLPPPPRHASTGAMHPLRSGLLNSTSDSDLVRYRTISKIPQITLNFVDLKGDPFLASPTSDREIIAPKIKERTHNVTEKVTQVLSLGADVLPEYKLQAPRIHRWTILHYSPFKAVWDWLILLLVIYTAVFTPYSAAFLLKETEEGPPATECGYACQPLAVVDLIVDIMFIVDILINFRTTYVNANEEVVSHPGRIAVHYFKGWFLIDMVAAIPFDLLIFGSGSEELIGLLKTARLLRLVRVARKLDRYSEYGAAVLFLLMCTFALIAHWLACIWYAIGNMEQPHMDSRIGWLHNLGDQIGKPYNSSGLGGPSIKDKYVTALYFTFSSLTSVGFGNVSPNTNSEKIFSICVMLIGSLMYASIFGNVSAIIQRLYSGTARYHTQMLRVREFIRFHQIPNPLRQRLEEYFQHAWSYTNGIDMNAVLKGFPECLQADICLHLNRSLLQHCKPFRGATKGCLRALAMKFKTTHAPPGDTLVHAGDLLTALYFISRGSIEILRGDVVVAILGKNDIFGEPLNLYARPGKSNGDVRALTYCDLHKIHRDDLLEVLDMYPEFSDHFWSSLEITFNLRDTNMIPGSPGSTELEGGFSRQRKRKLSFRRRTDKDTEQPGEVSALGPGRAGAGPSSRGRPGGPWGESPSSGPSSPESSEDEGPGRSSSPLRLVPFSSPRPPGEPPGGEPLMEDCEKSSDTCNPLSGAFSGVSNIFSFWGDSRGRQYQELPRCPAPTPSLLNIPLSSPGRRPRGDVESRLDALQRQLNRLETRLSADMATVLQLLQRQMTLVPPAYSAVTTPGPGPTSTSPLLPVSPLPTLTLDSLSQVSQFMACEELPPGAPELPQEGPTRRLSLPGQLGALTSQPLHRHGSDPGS

CYP3A4 = CYP3A4 (Homo sapiens, UniProt P08684); assay: Mechanism based inhibition of CYP3A4 in human liver microsome assessed as remaining percentage at 100 uM in presence of substrate ACN preincubated 30 mins followed by substrate addition relative to control; format: ADME; conditions: liver microsomes, probe ACN (so in the source), read-out: Activity
CYP3A4, sequence (P08684 whole entry): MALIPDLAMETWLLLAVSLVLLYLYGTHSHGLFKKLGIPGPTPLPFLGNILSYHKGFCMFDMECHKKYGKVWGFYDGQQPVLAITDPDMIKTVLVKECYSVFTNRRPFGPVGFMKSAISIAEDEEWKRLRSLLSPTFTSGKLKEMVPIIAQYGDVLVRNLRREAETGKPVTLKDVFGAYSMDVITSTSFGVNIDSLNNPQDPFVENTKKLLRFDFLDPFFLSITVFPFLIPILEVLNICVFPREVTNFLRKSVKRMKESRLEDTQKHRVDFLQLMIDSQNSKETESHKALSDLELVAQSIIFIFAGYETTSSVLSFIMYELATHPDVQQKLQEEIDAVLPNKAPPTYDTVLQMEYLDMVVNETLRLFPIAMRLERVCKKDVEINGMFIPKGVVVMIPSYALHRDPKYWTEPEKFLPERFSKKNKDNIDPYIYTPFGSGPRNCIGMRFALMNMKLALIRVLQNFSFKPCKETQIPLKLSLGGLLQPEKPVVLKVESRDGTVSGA

[12] = AUC (0 to infinity) in mouse at 10 mg/kg, po; format: ADME, organism-based; parameters: time infinity, route oral, dose 10 mg/kg; conditions: in vivo
[13] = Tmax in mouse at 10 mg/kg, po; format: ADME, organism-based; conditions: in vivo
[14] = Oral bioavailability in mouse at 10 mg/kg; format: ADME, organism-based; conditions: in vivo
[15] = Initial plasma concentration in mouse at 1 mg/kg, iv; format: ADME, organism-based
[16] = AUC (0 to infinity) in mouse at 1 mg/kg, iv; format: ADME, organism-based; parameters: time infinity, route intravenous, dose 1 mg/kg; conditions: in vivo
[17] = Half-life in mouse at 1 mg/kg, iv; format: ADME, organism-based; conditions: in vivo
[18] = Volume of distribution at steady state in mouse at 1 mg/kg, iv; format: ADME, organism-based; conditions: in vivo, read-out: Vdss
[19] = Intrinsic clearance in mouse at 1 mg/kg, iv; format: ADME, organism-based; conditions: in vivo
[20] = tested on: CD34-positive (myeloid/lymphoid) cell; assay: Inhibition of G9a methyltransferase activity in human CD34+ cells assessed as induction of fetal type gamma globin at 1 uM in presence of erythropoietin measured after 21 days by staining based method; format: functional; conditions: time 21.0 day

IC50 [1] [nM] | IC50 [2] [nM] | Structure (SMILES) | also measured
> 5000 |  | CNc1cc(C)nc(Nc2ccc(OC)c(N3CCN(C)CC3)c2)n1 | 
451 | 864 | CNc1cc(C)nc(Nc2ccc(OC)c(C3=CCCN(C)C3)c2)n1 | 
 |  | COc1cc2c(cc1OCCCN1CCCC1)N=C(N)C21CCC1 | Activity [3]: Active
15.2 | 43.2 | CNc1cc(C)nc(Nc2ccc(C#N)c(C3=CCNCCC3)c2)n1 | 
213 | 1590 | CNc1cc(C)nc(Nc2ccc(OC)c(C3=CCN(CCO)CCC3)c2)n1 | 
10.5 | 44.1 | CCN1CC=C(c2cc(Nc3nc(C)cc(NC)n3)ccc2OC)CCC1 | 
3.25 | 14.7 | CNc1cc(C)nc(Nc2ccc(OC(F)F)c(C3=CCNCCC3)c2)n1 | 
1490 | 2770 | CNc1cc(C)nc(Nc2ccc(OC)c(C3=CCN(C)C3)c2)n1 | 
588 |  | CNc1cc(C)nc(Nc2ccc(OC)c(C3CCN(C)CC3)c2)n1 | 
853 | 3800 | CNc1cc(C)nc(Nc2ccc(OC(F)(F)F)c(C3=CCNCCC3)c2)n1 | 
 | 74.1 | CNc1cc(C)nc(Nc2ccc(OC)c(C3=CCN(C)CCC3)c2)n1 | logD [4]: 1.3; Papp [5]: 8.4 ×10⁻⁶ cm/s; solubility [6]: 710 µg/mL (≈ 2010 µM); solubility [7]: 360 µg/mL (≈ 1020 µM); remaining at 0.5 h [8]: 23%; remaining at 0.5 h [9]: 2%; remaining at 0.5 h [10]: 76%; Cmax [11]: 210 nM; inhibition at 10 µM (hERG (KCNH2)): 17%; activity at 30 min, 100 µM (CYP3A4): 87.3%; AUC(0-inf) [12]: 3.14 µM·h; Tmax [13]: 0.63 h; bioavailability [14]: 26%; C0 [15]: 220 nM; AUC(0-inf) [16]: 1.2 µM·h; half-life [17]: 5.6 h; Vd [18]: 14.9 L/kg; CL [19]: 38.7 mL/min/kg
83.3 | 479 | CNc1cc(C)nc(Nc2ccc(OC)c(C3=CCCNCC3)c2)n1 | 
14.2 | 109 | CNc1cc(C)nc(Nc2ccc(C)c(C3=CCNCCC3)c2)n1 | 
6.32 | 27.1 | CNc1cc(C)nc(Nc2ccc(Cl)c(C3=CCNCCC3)c2)n1 | 
 |  | COc1cc2c(NC3CCN(C(C)C)CC3)nc(C3CCCCC3)nc2cc1OCCCN1CCCC1 | Activity [20]: Active
28.2 | 342 | CNc1cc(C)nc(Nc2ccc(OC)c(C3CCCNCC3)c2)n1 (racemic) | 
145 | 1070 | CNc1cc(C)nc(Nc2ccc(OC)c(C3=CCN(C4CCC4)CCC3)c2)n1 | 

Structure (SMILES) | IC50 [1] [nM] | IC50 [2] [nM] | also measured
CNc1cc(C)nc(Nc2ccc(OC)c(C3=CCN(C)CC3)c2)n1 | 92.9 | 277 | 
CNc1cc(C)nc(Nc2ccc(OC)c(C3=CCNCC3)c2)n1 | 225 | 1160 | 
